From US20250304575A1, “COMPOUNDS AND PHARMACEUTICAL COMPOSITIONS THEREOF FOR THE TREATMENT OF NEURODEGENERATIVE DISORDERS” (Galapagos NV, priority 2022, published 2025)

Tested on: Aβ1-42-injected mice (short-term spatial memory)
Assay: Alzheimer's disease mouse model using intrahippocampal injection of oligomers of amyloid beta; forced alternation Y-maze test
Assay type: in vivo, C57BL6 mice
Conditions: for Cumulative duration (sec) in the new arm of the Y-maze: Aβ1-42 (2 μL/side, 100 μM) injected mice, n = 12, daily treatment, Compounds 5 mg/kg p.o., Donepezil 1 mg/kg i.p., group mean, Aβ1-42 + vehicle group 78.9, sham 115.5
[1] = compared to Aβ1-42-injected, vehicle treated mice (group ID 2), 5 mg/kg p.o. daily

Experimental: This study evaluated the cognitive functions of the mice after a chronic administration of the compounds, after the ApO injury.
The forced alternation Y-maze test relies on the natural tendency of rodents to explore new environments and was used to evaluate short-term spatial memory and exploratory behavior of injured mice.
18-month-old male C57BL6 mice (Janvier Labs) were housed for acclimatation for 1 week in Neuro-Sys facilities and were maintained in a reversed 12 h light-dark cycle. The animals were group-housed (2-4 animals per cage) and maintained in room with controlled temperature (21-22° C.) and hygrometry (40-60%) and with food and water available ad libitum.
After one week of acclimatization, all the mice were subjected to a bilateral hippocampal stereotaxic surgery determined relative to the bregma according to the Paxinos and Franklin's mouse brain atlas(Yeung et al. 2020).
The Aβ1-42 preparation were done following the procedure described by Callizot (Callizot et al. 2013). Briefly, Aβ1-42 peptide (Bachem, 1071428, CAS #107761-42-2) was dissolved in the vehicle (0.5% Methylcellulose in water (w/v)), at an initial concentration of 100 μM. This solution was gently agitated for 3 days at 37° C. in the dark.
After agitation, the Aβ1-42 preparation were bilaterally injected into the stratum oriens, striatum pyramidal and striatum radiatum of the CA1 area of the hippocampus at three different depths within the CA1 region. Stereotaxic bilateral administration of 2 μL/side of Aβ1-42 preparation (100 μM, containing ˜15 mol/L of oligomers precisely measured by automatic WB), or vehicle, were bilaterally injected with a Hamilton syringe in the CA 1 area of the hippocampus (0.2 μL/min with an Elite Nanomite syringe pump).
All treatments started the day before the stereotaxic injections of A31-42 and were administrated daily until the last day of the experiment at which point different tissue samples were collected.
Test compounds were administered by oral gavage (p.o.).
Preparation with vehicle 1: The required amount of the test compound was weighted and placed in a glass tube. The compound was dissolved in 0.5% Methylcellulose in water (w/v) corresponding to 100% of the final volume and vortexed. The formulation (glass vial) was placed in an ultrasonic bath for 30 min.
Preparation with vehicle 2: The required amount of the test compound was weighted and placed in a glass tube. The compound was dissolved in a volume PEG200 corresponding to 25% of the final volume (at 4× concentration). The preparation was aliquoted in tubes protected from light and stored at 4° C. Before administration, a volume of MC (0.5%, w/v in sterile water) corresponding to 75% of the final volume (for 1× concentration) was added to the preparation and vortexed. The formulation (glass vial) was placed in an ultrasonic bath for homogenization. The glass vial containing the preparation was kept under agitation and protected from light until administration.
The Y-maze was used to assess short term memory (working memory) in mice. Spatial reference memory, which is underlined by the hippocampus, was tested by placing the test mice into the Y-maze with one arm closed off during training. After an intertrial interval, the mouse should remember which arm it has not explored previously and should visit this arm more often (Kraeuter, Guest, and Samyai 2019).

With `CN(C)S(=O)(=O)C1CN(c2cc3nn(-c4ccc(F)cc4)cc3cn2)C1` [Compound 14, 1-(2-(4-fluorophenyl)-2H-pyrazolo[4,3-c]pyridin-6-yl)-N,N-dimethylazetidine-3-sulfonamide] the “Cumulative duration (sec) in the new arm of the Y-maze” value was 112.5 s, the “Effect on short-term spatial memory (Y-maze), day 7 post-surgery” value [1] was “significant beneficial effects” and the “Effect on short-term spatial memory (Y-maze), day 14 post-surgery” value (day 14 post-surgery, compared to Aβ1-42-injected, vehicle treated mice (group ID 2), 5 mg/kg p.o. daily) was “significant beneficial effects”.
In the case of `CN(C)S(=O)(=O)C1CN(c2ccc3cn(-c4ccccc4)nc3n2)C1` [Compound 66, N,N-dimethyl-1-(2-phenyl-2H-pyrazolo[3,4-b]pyridin-6-yl)azetidine-3-sulfonamide], the “Cumulative duration (sec) in the new arm of the Y-maze” value is reported as 104.4 s and the “Effect on short-term spatial memory (Y-maze), day 7 post-surgery” value [1] is reported as “significant beneficial effects”.
